From patent US20150056702A1, “METHOD AND KIT FOR CULTURING STEM CELLS” (China Medical University, priority 2013, published 2015)

Assays:
ES cells = experiment: Alkaline phosphatase staining of ES cells; format: cell-based, mouse
Description: The following steps were conducted in order to culture ES cells: • (1) preparing a stem cell medium: DMEM+15% heat-inactivated FBS+NEAA (0.1 mM)+L-glutamine (2 mM)+β-mercaptoethanol (0.2 mM); • (2) preparing a BP-containing solution: dissolving BP into DMSO to form a BP-containing solution (100 mg/ml), and storing the solution at −20° C.; • (3) adding different amounts of the BP-containing solution in step (2) into the stem cell medium in step (1) to form different BP-containing mediums, wherein the amount of BP were about 5, 10, 20 or 40 μg per milliliter of the stem cell medium respectively (i.e. the experimental group mediums: BP5, BP10, BP20 and BP40); and • (4) using the BP-containing medium of in step (3) to culture a ES cell (retrieved from the embryos in the blastula stage of 129sv/J mice) at 37° C., 5% CO2 and 95% humidity on the feeder cells provided by Example 1.
The following procedure was conducted in proper order to culture the ES cells: • (1) preparing a stem cell medium: • LIF-containing medium (without BP): DMEM+15% heat-inactivated FBS+NEAA (0.1 mM)+L-glutamine (2 mM)+(3-mercaptoethanol (0.2 mM)+LIF (4 ng/ml); and • control medium (without BP): DMEM+15% heat-inactivated FBS+NEAA (0.1 mM)+L-glutamine (2 mM)+β-mercaptoethanol (0.2 mM); • (2) using the medium in step (1) to culture a ES cell (retrieved from embryos in the blastula stage of 129sv/J mice) at 37° C., 5% CO2 and 95% humidity on the feeder cells provided by Example 1.
Alkaline phosphatase is a marker protein of stem cells. The activity measured by staining could be used to determine if BP can effectively maintain the self-renewal and/or pluripotency of stem cells.
An experimental group medium (BP5, BP10, BP20 or BP40), a LIF-containing medium (without BP) and a control group medium (without BP) were used respectively to culture ES cells in a 6-well culture dish with an initial density of 1×10^4 per well for 72 hours. The medium was removed and the cells were washed two times with PBS. Next, PBS was removed, and 1 ml of 80% ethanol was added into each well to perform the fixation at 4° C. for 2 to 24 hours. Next, ethanol was removed, and then the cells were washed one time with distilled water. The distilled water was added again to soak the cells for 2 to 3 minutes, and then be removed. Next, the cells were soaked with a Tris-HCl buffer (100 mM, pH 8.2 to 8.5) at room temperature for 5 minutes, and then, the buffer was removed. Next, a Leukocyte Alkaline Phosphatase kit (Vector) was used to perform the staining for 20 to 30 minutes, and then the Alkaline Phosphatase Substrate working solution was removed, the cells were soaked and washed by Tris-HCl buffer (100 mM, pH 8.2 to 8.5) and then be observed by a fluorescent microscope to count the number of the AP-positive clones. The undifferentiated ES cells with a higher activity show a red color, while the differentiated ES cells with a lower activity show a weak red color or are even colorless.

Nanog = experiment: Immunofluorescence staining, Nanog in iPS cells; format: cell-based, mouse; conditions: 72 hours, control group = 100%
Source text: Nanog and SSEA1 are also marker proteins of stem cells, and their expression levels could be measured by immunofluorescence staining to further confirm whether BP can effectively maintain the self-renewal and pluripotency of stem cells.
An experimental group medium (BP5, BP10, BP20 or BP40), a LIF-containing medium (without BP), and a control group medium (without BP) were used respectively in a 6-well culture dish which comprises a slide in each well to culture ES cells with an initial density of 1×10^4 per well for 72 hours. The medium was removed and the cells were washed with PBS. Next, PBS was removed, and then 4% paraformaldehyde was added to perform the fixation at room temperature for 10 minutes. Next, paraformaldehyde was removed, and then slides were washed with 0.1% Tween-20/1X PBS three times for 10 minutes each time. The 0.3% Tween-20/1X PBS was added and held at room temperature for 30 minutes to penetrate the cell membrane to benefit the dye entry. After the slides were washed three times with 0.1% Tween-20, 5% FBS/1×PBS was added to perform a blocking reaction at room temperature for 2 hours, and then reacting with the primary antibody [anti-Nanog (Novus) or anti-SSEA1 (Millipore)] at a dilution of 1:100 at room temperature overnight. Slides were then washed 5 times with 0.1% Tween-20, then reacting with the secondary antibody [FITC-conjugated anti-mouse IgG or TRITC-conjugated anti-rabbit IgG (Sigma-Aldrich)] at a dilution of 1:500. After washed with 0.1% Tween-20 for 10 minutes, slides were mounted with the DAPI-containing UltraCruz™ Mounting medium and observed using an inverted fluorescent microscope.
By using the above culture conditions, an experimental group medium (BP5, BP10, BP20 or BP40), a LIF-containing medium (without BP), and a control group medium (without BP) were used respectively to culture iPS cells. The staining of iPS cells was performed by using the steps described above.

Row | Molecule | AP-positive clones (ES cells; LIF-containing medium (LIF 4 ng/ml, without BP), ES cells, 72 hours, control group = 100%) | Nanog expression level (Nanog; LIF-containing medium (LIF 4 ng/ml, without BP)) | AP-positive clones (ES cells; BP5 medium (about 5 μg BP/ml), ES cells, 72 hours, control group = 100%) | AP-positive clones (ES cells; BP10 medium (about 10 μg BP/ml), ES cells, 72 hours, control group = 100%) | AP-positive clones (ES cells; BP20 medium (about 20 μg BP/ml), ES cells, 72 hours, control group = 100%) | AP-positive clones (ES cells; BP40 medium (about 40 μg BP/ml), ES cells, 72 hours, control group = 100%) | AP-positive clones (ES cells; BP-containing ES cell medium vs control group (without BP), result in words) | Nanog expression level (Nanog; BP5 medium (about 5 μg BP/ml)) | Nanog expression level (Nanog; BP10 medium (about 10 μg BP/ml)) | Nanog expression level (Nanog; BP20 medium (about 20 μg BP/ml)) | Nanog expression level (Nanog; BP40 medium (about 40 μg BP/ml))
1 | LIF: multifunctional cell factor used to maintain pluripotency of stem cells; LIF-containing medium (4 ng/ml, without BP) as comparison | 110% | 386% | – | – | – | – | – | – | – | – | –
2 | CCCC=C1OC(=O)c2ccccc21 [BP, n-butylidenephthalide] | – | – | 91% | 116% | 116% | 117% | more AP-positive clones | 142% | 305% | 358% | 442%
